Measured values: patent publication US20230149360A1, “ALPHA-2 ADRENERGIC RECEPTOR AGONISTS FOR THE PREVENTION AND/OR THE TREATMENT OF SPLEEN DISORDERS” (UNIVERSITÉ CATHOLIQUE DE LOUVAIN, priority 2020, published 2023)

Columns and labels:
TiRP tumor bearing mice = assay: Tumor-induced splenomegaly in TiRP tumor bearing mice (spleen weight); type: in vivo; settings: 5 mg/kg i.p. daily from tumor size around 500 mm^3 until sacrifice
Description: TiRP mice have been created by crossing Ink4a/Arf^flox/flox mice with mice carrying a transgenic construct controlled by the tyrosinase promoter and driving the expression of H-Ras^12V and Trap1a which encodes a MAGE-type tumor antigen […]; the promoter is separated from the coding region by a stop cassette made of a floxed self-deleting CreER (Huijbers et al., 2006, Cancer Res 66, 3278-3286). Those mice were backcrossed to a B10.D2 background and bred to homozygosity. TCR[…] mice heterozygous for the H-2Ld/[…]-43-specific TCR transgene were kept on the B10.D2;Rag1^-/- background ([…] et al., 2004, J Immunol 172, 5069-5077). DBA/2 mice and C57BL/6J mice were used in tumor transplantation and mice immunization experiments. All mice used in this study were produced under specific pathogen free (SPF) conditions at the animal facility of the de Duve Institute. All the rules concerning animal welfare have been respected according to the 2010/63/EU Directive. All procedures were performed with the approval of the local Animal Ethical Committee, with reference 2015/UCL/MD/15. A fresh solution of […]-Tamoxifen was prepared by dissolving […]-Tamoxifen ([…]®) in 100% ethanol and mineral oil (ratio 1:9) followed by 30 min sonication, and injected subcutaneously (2 mg/200 μL per mouse) in the neck area of gender-matched 7 weeks old TiRP mice. Tumor appearance was monitored daily and tumors were measured three times/week. Tumor volume (in mm^3) was calculated by the following formula: Volume=width^2×length/2. C57BL/6 mice were injected subcutaneously with 1 million B16F1 or B16F10 melanoma cells at an age between 6 to 8 weeks. The mice received daily injections of guanabenz (5 mg/kg, i.p.) or PBS when the tumor size was around 100 mm^3. Mice were sacrificed when the tumor in control group reached 1,000 mm^3. Spleen were isolated and weighted. […] TiRP tumor bearing mice received daily injections of clonidine (5 mg/kg, i.p.), romifidine (5 mg/kg, i.p.) or PBS when the tumor size was around 500 mm^3. […] Spleen were isolated and spleen weight was measured with an analytical balance.

[1] = tested on: C56BL/6 Wildtype mice implanted with MC38 colon carcinomas; assay: Tumor-induced splenomegaly, MC38 colon carcinomas in wildtype mice; type: in vivo; settings: 5 mg/kg i.p. daily from tumor size around 50 mm^3
Experimental: (§1) C56BL/6 Wildtype or C56BL/6 Adra2a KO mice were implanted with MC38 colon carcinomas and received daily injections of vehicle control, guanabenz or clonidine (5 mg/kg, i.p.) when the tumor size was around 50 mm^3, until the day of sacrifice. Spleen weight were taken at the time of mice dissection.

[2] = tested on: BALB/c mice bearing CT26 colon carcinomas; assay: Splenomegaly in mice bearing CT26 colon carcinomas, agonist/antagonist evaluation; type: in vivo; settings: each drug 5 mg/kg i.p. daily from tumor size around 50 mm^3
Experimental: B16F1, B16F10 melanoma cells, and CT26 colon carcinoma cells were cultured in IMDM medium supplemented with 10% Fetal bovine serum (FBS). […] For evaluation of phentolamine on the effect of clonidine and guanabenz, the mice were randomized into different groups when tumors size arrived around 50 mm^3 and received daily injections of guanabenz (5 mg/kg, i.p.), phentolamine (5 mg/kg, i.p.), propranolol (5 mg/kg, i.p.), a mix of guanabenz (5 mg/kg, i.p.) and phentolamin (5 mg/kg, i.p.), clonidine (5 mg/kg, i.p.), a mix of clonidine (5 mg/kg, i.p.) and phentolamin (5 mg/kg, i.p.), a mix of clonidine (5 mg/kg, i.p.) and propranolol (5 mg/kg, i.p.) or vehicle control. Tumor size was measured every 2 days and mice were sacrificed when the tumor in control group reached 1,000 mm^3. Spleen were isolated and spleen weight was measured with an analytical balance. Spleen from mice of same age without tumors were used as controls.

[3] = tested on: patient with obesity-related diseases, such as fatty liver; settings: cited from earlier work
B16F1 tumor-bearing mice = assay: Tumor-induced splenomegaly in B16F1 tumor-bearing mice (spleen weight); type: in vivo; settings: 5 mg/kg i.p. daily from tumor size around 100 mm^3
Experimental: (§2) B16F1, B16F10 melanoma cells, and CT26 colon carcinoma cells were cultured in IMDM medium supplemented with 10% Fetal bovine serum (FBS). C57BL/6 mice were injected subcutaneously with 1 million B16F1 or B16F10 melanoma cells at an age between 6 to 8 weeks. The mice received daily injections of guanabenz (5 mg/kg, i.p.) or PBS when the tumor size was around 100 mm^3. Mice were sacrificed when the tumor in control group reached 1,000 mm^3. Spleen were isolated and weighted. […] TiRP tumor bearing mice received daily injections of clonidine (5 mg/kg, i.p.), romifidine (5 mg/kg, i.p.) or PBS when the tumor size was around 500 mm^3. Mice were sacrificed when the tumor in control group reached 1,500 mm^3. Spleen were isolated and spleen weight was measured with an analytical balance.

[4] = tested on: mice transplanted with JAK2V617F mutated bone marrow; assay: Splenomegaly induced by myelofibrosis (JAK2V617F mutated bone marrow transplantation); type: in vivo; settings: for spleen weight (myelofibrosis-induced splenomegaly), prevention: treatment started one week after bone marrow transplantation, 5 mg/kg daily for three weeks; for spleen weight (myelofibrosis-induced splenomegaly), treatment: treatment started three weeks after bone marrow transplantation, splenomegaly already formed, 5 mg/kg daily for two weeks
[5] = tested on: B16F10 tumor-bearing mice; assay: Tumor-induced splenomegaly in B16F10 tumor-bearing mice (spleen weight); type: in vivo; settings: 5 mg/kg i.p. daily from tumor size around 100 mm^3
Experimental: as §2

DBA/2 mice = assay: Splenomegaly induced by virus-mediated (Chadox_li_P1A prime, MVA_P1A boost) immunization; type: in vivo; settings: 5 mg/kg 2 hours before and daily after immunization, two weeks
[6] = tested on: C56BL/6 Adra2a KO mice implanted with MC38 colon carcinomas; assay: Tumor-induced splenomegaly, MC38 colon carcinomas in Adra2a KO mice; type: in vivo; settings: 5 mg/kg i.p. daily from tumor size around 50 mm^3
Experimental: as §1

C57BL/6J mice = assay: Splenomegaly induced by protein-mediated (Ovalbumin) immunization; type: in vivo; settings: 5 mg/kg 2 hours before and daily after immunization, one week
Experimental: C57BL/6J mice were immunized once by intraperitoneal (i.p.) injection of 200 μg of OVA protein adsorbed onto Alhydrogel adjuvant 2% (Sigma Aldrich®). These mice were administered 100 μg (5 mg/kg) of guanabenz 2 hours before the immunization and daily after the immunization. […] One week after the immunization, mice were sacrificed, the spleen of each mouse was collected, and spleen weight was measured with an analytical balance.

[7] = tested on: flatworm-induced splenomegaly (schistosomiasis); settings: cited from earlier work
TiRP-tumor bearing mice = TiRP-tumor bearing mice with ACT of 10 million P1A-specific CD8+ T cells; each drug 5 mg/kg i.p. daily from tumor size around 500 mm^3
Adra2a KO mice = settings: romiplostim 1 mg/kg s.c. days 1, 8, 15, 5 mg/kg i.p. daily for two weeks from day 8
Experimental: (§3) 8-week female C57BL/6 J wild-type and Adra2a KO mice were administered saline or 1 mg/kg of romiplostim by a subcutaneous injection into the neck skin on days 1, 8 and 15. Clonidine or guanabenz were administrated i.p. at a dose of 5 mg/kg daily for two weeks starting from day 8. Mice were dissected on day 22 and spleen weight were measured. After killing, peripheral blood was drawn by cardiac puncture, the platelet concentration was measured by Cell Counter Analyzer MS9-5V.

C57BL/6 J wild-type mice = settings: romiplostim 1 mg/kg s.c. days 1, 8, 15, 5 mg/kg i.p. daily for two weeks from day 8
Experimental: as §3

N=C(N)N/N=C/c1c(Cl)cccc1Cl [guanabenz]
spleen weight (tumor-induced splenomegaly) (TiRP tumor bearing mice): can reverse the tumor-induced splenomegaly | spleen weight (tumor-induced splenomegaly) [1]: inhibit tumor-induced splenomegaly | spleen weight / spleen size [2]: reduced the spleen size | weight of the spleen [3]: promoting a decrease in the weight of the spleen | spleen weight (tumor-induced splenomegaly) (B16F1 tumor-bearing mice): can reverse the tumor-induced splenomegaly | spleen weight (myelofibrosis-induced splenomegaly), prevention [4]: significantly reduced the splenomegaly | spleen weight (myelofibrosis-induced splenomegaly), treatment [4]: significantly reduced the splenomegaly | spleen weight (tumor-induced splenomegaly) [5]: can reverse the tumor-induced splenomegaly | spleen weight (immunization-induced splenomegaly) (DBA/2 mice): inhibits splenomegaly | spleen weight (tumor-induced splenomegaly) [6]: no inhibition is observed | spleen weight (immunization-induced splenomegaly) (C57BL/6J mice): inhibits splenomegaly

Fc1cccc(Br)c1NC1=NCCN1 [romifidine]
spleen weight (tumor-induced splenomegaly) (TiRP tumor bearing mice): TiRP tumor-induced splenomegaly is inhibited

CN1C[C@H](C(=O)N[C@]2(C)O[C@@]3(O)[C@@H]4CCCN4C(=O)[C@H](Cc4ccccc4)N3C2=O)C=C2c3cccc4[nH]cc(c34)C[C@H]21 [ergotamine]
splenomegaly [7]: reduced flatworm-induced splenomegaly

Clc1cccc(Cl)c1N=C1NCCN1 [clonidine]
spleen weight (tumor-induced splenomegaly) (TiRP tumor bearing mice): TiRP tumor-induced splenomegaly is inhibited | spleen weight (tumor-induced splenomegaly) [1]: inhibit tumor-induced splenomegaly | spleen weight / spleen size [2]: reduced the spleen size | spleen weight / spleen size (TiRP-tumor bearing mice): reduced spleen size | spleen weight (romiplostim-induced splenomegaly) (Adra2a KO mice): not in Adra2a KO mice | spleen weight (romiplostim-induced splenomegaly) (C57BL/6 J wild-type mice): significantly reduced the splenomegaly | spleen weight (myelofibrosis-induced splenomegaly), prevention [4]: significantly reduced the splenomegaly | spleen weight (myelofibrosis-induced splenomegaly), treatment [4]: significantly reduced the splenomegaly | spleen weight (tumor-induced splenomegaly) [6]: no inhibition is observed
